Experimental data reported in patent US6506407B2, “Colon-specific drug release system” (Yamanouchi Pharmaceutical Co., Ltd., priority 1994, dated 2003).

Assays:
[1] = water solubility of saccharides and sugar alcohols
enterobacteria = assay: generation of organic acid by the action of enterobacteria
[2] = tested on: contents of the cecum of a rat (enterobacteria); assay: pH of 10 w/v % cecal contents dispersion (CPBS) with saccharide (Test Example 7); details: 200 mg saccharide in 20 ml 10 w/v % CPBS, 37° C.
Experimental: An isotonic phosphate buffer solution (pH: 7.3; PBS) was adjusted to pH 6.8 by CO2 bubbling. The contents of the cecum of a rat deprived of food for 24 hours was dispersed, therein to prepare a 10 w/v % dispersion of the cecal contents in PBS (CPBS). To 20 ml of CPBS was added 200 mg of a saccharide, and the mixture was shaken in a water bath at 37° C., and the pH of the CPBS was measured with time.

[3] = tested on: contents of the cecum (enterobacteria); assay: pH change of dispersion of rat cecal contents in PBS (C-PBS) with lactulose, shaken at 37° C. under anaerobic condition (Test Example 2); design: species or system SD male rat
Experimental: A 1/15 M phosphate buffer solution (NaH2PO4-Na2HPO4; pH 7.3; hereinafter referred to as PBS) was made isotonic by addition of sodium chloride and adjusted to pH 6.8 by CO2 bubbling. The contents of the cecum of an SD male rat was dispersed therein to prepare a 10 w/v % dispersion of the cecal contents in PBS (hereinafter referred to as C-PBS). To 10 ml of C-PBS was added 100 mg of lactulose, and the mixture was shaken (50 strokes/min) at 37° C. under an anaerobic condition, and the pH change was measured. As a control, the same test was conducted on no lactulose-administered C-PBS. The same test was carried out on a mixture of 30 w/v % C-PBS and lactulose. As shown in the table, the pH of the cecal contents rapidly decreases by the addition of lactulose.

[4] = pH in the cecum with time after oral lactulose aqueous solution (Test Example 3); format: in vivo, SD male rats; details: for pH in the cecum: oral 100 mg/rat
Experimental: SD male rats deprived of food overnight were orally given a lactulose aqueous solution (100 mg/rat), and the pH in the cecum was measured with time.

[5] = phosphorus concentration in plasma after salmon calcitonin; format: in vivo; details: beagle dogs in fasted condition, s.c., 50 IU/animal, versus untreated control
Experimental: The following solution was subcutaneously administered to beagle dogs in fasted condition. Blood was taken with time to determine the phosphorus concentration in plasma using Inorganic Phosphorus E-HA Test Wako (Wako Pure Chemical Industries, Ltd.).
1% Gelatin solution containing 50 IU/0.2 ml of salmon calcitonin (pH 3; 0.2 ml; 50 IU/animal)
A single tablet of the preparation obtained in Examples 21, 22 or 24 or two tablets of the preparation obtained in Example 23 was administered orally to beagle dogs together with 30 ml of water, and blood was taken with time to determine the phosphorus concentration in plasma.
A single tablet of the preparation obtained in Examples 25, 26 or 28 or two tablets of the preparation obtained in Example 27 was administered orally to beagle dogs together with 30 ml of water, and blood was taken with time to determine the phosphorus concentration in plasma.

Compound: OC[C@@H](O)[C@H](O)[C@@H](O)CO [xylitol]
- water solubility [1]: high
- rapid generation of an organic acid by enterobacteria (enterobacteria): rapid generation of an organic acid was not observed

Compound: O=C[C@H](O)[C@@H](O)[C@H](O)CO [xylose]
- water solubility [1]: high
- rapid generation of an organic acid by enterobacteria (enterobacteria): generate an organic acid rapidly

Compound: OC[C@H]1O[C@H](O[C@H]2[C@H](O)[C@@H](O)[C@H](O)O[C@@H]2CO)[C@H](O)[C@@H](O)[C@@H]1O [maltose]
- degradation by enterobacteria with organic acid generation (pH of CPBS with time) [2]: degraded by enterobacteria to generate an organic acid similarly to lactulose
- rapid generation of an organic acid by enterobacteria (enterobacteria): generate an organic acid rapidly

Compound: O=C[C@H](O)[C@H](O)[C@H](O)CO [ribose]
- water solubility [1]: low
- rapid generation of an organic acid by enterobacteria (enterobacteria): no rapid generation of an organic acid

Compound: OC[C@H]1O[C@@H](O[C@@H]2[C@@H](CO)OC(O)(CO)[C@H]2O)[C@H](O)[C@@H](O)[C@H]1O (mixture of isomers) [lactulose]
- pH of C-PBS ([3]; 10 w/v % C-PBS 10 ml, lactulose 100 mg, 0 hr): 6.42
- pH of C-PBS ([3]; 10 w/v % C-PBS 10 ml, lactulose 100 mg, 2 hr): 5.93
- pH of C-PBS ([3]; 10 w/v % C-PBS 10 ml, lactulose 100 mg, 4 hr): 5.64
- pH of C-PBS ([3]; 10 w/v % C-PBS 10 ml, lactulose 100 mg, 6 hr): 5.41
- pH of C-PBS ([3]; 10 w/v % C-PBS 10 ml, lactulose 100 mg, 8 hr): 5.27
- pH of C-PBS ([3]; 10 w/v % C-PBS 10 ml, lactulose 100 mg, 24 hr): 4.76
- pH of C-PBS ([3]; 30 w/v % C-PBS and lactulose, 0 hr): 6.42
- pH of C-PBS ([3]; 30 w/v % C-PBS and lactulose, 2 hr): 5.39
- pH of C-PBS ([3]; 30 w/v % C-PBS and lactulose, 4 hr): 5.25
- pH of C-PBS ([3]; 30 w/v % C-PBS and lactulose, 6 hr): 5.15
- pH of C-PBS ([3]; 30 w/v % C-PBS and lactulose, 8 hr): 5.08
- duration of pH reduction in the cecum ([4]; 100 mg/animal): 8 hours
- pH in the cecum reduced to ([4]; 100 mg/animal, in 3 to 4 hours from the administration): about 5.5
- pH in the cecum ([4]; 1 hr): 8.2
- pH in the cecum ([4]; 2 hr): 6.8
- pH in the cecum ([4]; 3 hr): 6.2
- pH in the cecum ([4]; 4 hr): 5.5
- pH in the cecum ([4]; 5 hr): 5.6
- pH in the cecum ([4]; 6 hr): 5.8
- pH in the cecum ([4]; 7 hr): 5.3
- pH in the cecum ([4]; rats deprived of food overnight, 0 hr): 7.6
- rapid generation of an organic acid by enterobacteria (enterobacteria): degraded rapidly to generate an organic acid

Compound: OC[C@@H](O)[C@@H](O)[C@H](O)[C@@H](O)CO [sorbitol]
- water solubility [1]: high
- rapid generation of an organic acid by enterobacteria (enterobacteria): rapid generation of an organic acid was not observed

Compound: Cc1occc(=O)c1O [maltol]
- water solubility [1]: low
- rapid generation of an organic acid by enterobacteria (enterobacteria): rapid generation of an organic acid was not observed

Compound: OC[C@H]1O[C@@H](O[C@H]2[C@H](O)[C@@H](O)C(O)O[C@@H]2CO)[C@H](O)[C@@H](O)[C@H]1O (stereo partly drawn) [lactose]
- rapid generation of an organic acid by enterobacteria (enterobacteria): no rapid generation of an organic acid

Compound: fructooligosaccharide
- degradation by enterobacteria with organic acid generation (pH of CPBS with time) [2]: degraded by enterobacteria to generate an organic acid similarly to lactulose

Compound: OC[C@@H](O)[C@@H](O)[C@H](O)[C@H](O)CO [mannitol]
- water solubility [1]: medium
- rapid generation of an organic acid by enterobacteria (enterobacteria): rapid generation of an organic acid was not observed

Compound: OC[C@H]1O[C@@](CO)(O[C@H]2O[C@H](CO)[C@@H](O)[C@H](O)[C@H]2O)[C@@H](O)[C@@H]1O [sucrose]
- degradation by enterobacteria with organic acid generation (pH of CPBS with time) [2]: degraded by enterobacteria to generate an organic acid similarly to lactulose
- water solubility [1]: high
- rapid generation of an organic acid by enterobacteria (enterobacteria): generate an organic acid rapidly

Compound: O=C[C@H](O)[C@@H](O)[C@@H](O)[C@H](O)CO [galactose]
- degradation by enterobacteria with organic acid generation (pH of CPBS with time) [2]: degraded by enterobacteria to generate an organic acid similarly to lactulose
- water solubility [1]: high
- rapid generation of an organic acid by enterobacteria (enterobacteria): generate an organic acid rapidly

Compound: O=C(CO)[C@@H](O)[C@H](O)[C@H](O)CO [fructose]
- degradation by enterobacteria with organic acid generation (pH of CPBS with time) [2]: degraded by enterobacteria to generate an organic acid similarly to lactulose
- water solubility [1]: high
- rapid generation of an organic acid by enterobacteria (enterobacteria): generate an organic acid rapidly

Compound: salmon calcitonin
- phosphorus level in plasma after subcutaneous administration [5]: suppressed immediately after the administration
